According to patent US20230255961A1, “Rotomeric Isomers of 4-Alkyl-5-Heteroaryl-3H-1,2-Dithiole-3-Thiones” (ST IP Holding AG, priority 2020, published 2023):
Where two headings read alike, the source gives them in different places.

Experiments:
rat cortical neurons = assay: Caspase 3/7 activation assay, OGD-induced neurotoxicity in rat cortical neurons; assay type: cell-based; settings: for OGD induced caspase 3/7 activation / neuroprotection: 100 μg/ml, 1 h incubation eighteen hours prior to OGD, FIG. 7
Experimental: The effect of the rotomer complexes of Examples 1, 2, 3 and 9 on neurotoxicity induced by oxygen glucose deprivation (OGD) was tested in a caspase 3/7 activation assay. The assay was applied to freshly isolated rat cortical neurons cultured in 96-well-plates and exposed to the compounds at 100 μg/ml.
In vitro ischemic injury was induced in rat primary neuronal culture by oxygen-glucose deprivation for 2 hours. Neurons were incubated with the compounds for 1 hour eighteen hours prior to the OGD induction. Dizocilpine (MK801) 10 μM was used as positive neuroprotection control. After treatments, incubated with three optically compatible fluorescent dyes, and subsequently analyzed with BD Pathway 855 (Becton Dickinson). Cell parameters associated with caspase 3/7 activation—indicative of pre-lethal cytotoxic effects—were measured by high content screening at single cell level.
Primary cultures of cortical neurons were isolated from cerebral cortices of Sprague-Dawley rat fetuses at embryonic day 18. Brains were removed and after removing the meninges, the tissues were dissected under a binocular microscope. Neurons were enzymatically dispersed by trypsin 0.2% and DNAse […] digestion for 10 min at 37° C. plated in poly-L-lysine wells and incubated with B27 supplemented neurobasal medium.
Cortical neurons of 18 days old embryonic rats were plated in poly-1-lysine coated 96-well plates (30,000 cells per well). Cells were maintained in neurobasal medium supplemented with B-27 component: for 5 days at 37° C. in a humidified 5% CO2 atmosphere. At day 5, cells were subjected to oxygen glucose deprivation (OGD) for 2 hours at 37° C. The cultures were placed in an […] chamber (Billops-Rothenberg) and incubated in neurobasal medium lacking glucose and B27 factor and aerated with an anaerobic gas mixture (94.7% N2. 5% CO2, 0.3% O2) to remove residual oxygen. Control cultures were kept in the original neurobasal medium but were submitted to the anaerobic conditions. At the end of the OGD conditions, the cells were removed from the anaerobic chamber, the OGD medium was replaced with neurobasal medium containing glucose, and the cells were incubated for an additional 24 h. The test compounds were added to the neurons eighteen hours prior to the OGD induction and maintained for 1 h. Replicate cultures were treated as described above with dizocilpine (MK801) as positive control of neuroprotection. The neuroprotective potential of the four rotomer complexes was determined by a caspase 3/7 activation assay.
(§1) Caspase 3/7 activation was determined using The CellEvent® Caspase-3/7 Green Detection Reagent which is intrinsically a non-fluorescent peptide that inhibits the ability of the dye to bind to DNA. However, after caspase-3/7 activation in apoptotic cells, the peptide is cleaved allowing the dye to bind to DNA producing a bright, fluorogenic response. Cell were stained with 5 μM reagent, washed 3 times and measured at 488 nm/530 nm Ex/Em. This dye permits the direct quantification of apoptotic cells.

HGEPp cells [1] = assay: ROS production in H2O2-induced oxidatively stressed HGEPp cells; assay type: cell-based, human; settings: HGEPp cells pretreated 24 hrs at 100 μg/mL prior to 0.3 mM H2O2 for 4 h; positive control 139%
Experimental: That same assay was carried out on the rotomer compositions prepared in Examples 1-11 above to determine their effect on protecting primary human gingival epithelial cells (HGEPp) cells from oxidative damage induced by hydrogen peroxide (H2O2).

[2] = system: mouse neonatal primary cardiomyocyte; settings: 100 μg/ml, 4 hours prior to OGD, during 18 h OGD and 24 h recovery; FIG. 9
Experimental: as §1

GSTP1 = assay: Human oxidative stress RT2 Profiler PCR array in HGEPp cells: GSTP1; assay type: cell-based; settings: HGEPp cells pretreated 24 h at 100 μg/ml; ΔΔCt
Experimental: (§2) RT-PCR was performed on an iCycler.

GPX4 = assay: Human oxidative stress RT2 Profiler PCR array in HGEPp cells: GPX4; settings: HGEPp cells pretreated 24 h at 100 μg/ml; ΔΔCt
Experimental: (§3) Pooled primary HGEPp cells were propagated in CnT-Prime epithelial culture medium provided by CellnTec on 100 mm petri dishes coated with 30 mg/ml Type I rat tail collagen (BD Biosciences) diluted in Duibecco's phosphate-buffered saline (DPBS). HGEPp cells were grown in 12×60 mm Nunc™ Cell Culture dishes at a 2.5×10^4 cells/cm2 density concentration.
(§4) All dosing solutions contained 0.3% of DMSO which is well below the maximum tolerated DMSO percent of 0.8% for HGEPp cells.
(§5) The RN-easy UCP Micro Kit was used to purify mRNA from the HGEPp cells.
(§6) The assay was reliably used to analyze expression levels of 84 genes related to oxidative stress in HGEPp cells pre-treated with ST-617-APT, ST-617-DPT and the rotomeric complexes at 100 μg/ml for 24 h. The cDNA from above was mixed with the RT2 SYBR Green fluor Mastermix and aliquoted into the wells of the RT2 Profiler PCR Array. RT-PCR was performed on an iCycler. Gene expression was compared using et values and the results were calculated using ΔΔ Ct method with normalization to the average expression levels of the five common genes (ACTB, B2M, GAPDH, HPRT, and RPL13A).

UCP2 = assay: Human oxidative stress RT2 Profiler PCR array in HGEPp cells: UCP2; assay type: cell-based; settings: HGEPp cells pretreated 24 h at 100 μg/ml; ΔΔCt
Experimental: as §2

NQO1 = assay: Human oxidative stress RT2 Profiler PCR array in HGEPp cells: NQO1; assay type: cell-based; settings: HGEPp cells pretreated 24 h at 100 μg/ml; ΔΔCt
Experimental: as §2

GCLM = assay: Human oxidative stress RT2 Profiler PCR array in HGEPp cells: GCLM; assay type: cell-based; settings: HGEPp cells pretreated 24 h at 100 μg/ml; ΔΔCt
Experimental: as §2

PRDX2 = assay: Human oxidative stress RT2 Profiler PCR array in HGEPp cells: PRDX2; settings: HGEPp cells pretreated 24 h at 100 μg/ml; ΔΔCt
Experimental: as §3, §4, §5, §6

ALOX12 = assay: Human oxidative stress RT2 Profiler PCR array in HGEPp cells: ALOX12; assay type: cell-based; settings: HGEPp cells pretreated 24 h at 100 μg/ml; ΔΔCt
Experimental: as §2

GCLC = assay: Human oxidative stress RT2 Profiler PCR array in HGEPp cells: GCLC; assay type: cell-based; settings: HGEPp cells pretreated 24 h at 100 μg/ml; ΔΔCt
Experimental: as §2

SOD1 = assay: Human oxidative stress RT2 Profiler PCR array in HGEPp cells: SOD1; assay type: cell-based; settings: HGEPp cells pretreated 24 h at 100 μg/ml; ΔΔCt
Experimental: as §2

GTF2i = assay: Human oxidative stress RT2 Profiler PCR array in HGEPp cells: GTF2i; assay type: cell-based; settings: HGEPp cells pretreated 24 h at 100 μg/ml; ΔΔCt
Experimental: as §2

GPX1 = assay: Human oxidative stress RT2 Profiler PCR array in HGEPp cells: GPX1; assay type: cell-based; settings: HGEPp cells pretreated 24 h at 100 μg/ml; ΔΔCt
Experimental: as §2

PTGS1 = assay: Human oxidative stress RT2 Profiler PCR array in HGEPp cells: PTGS1; assay type: cell-based; settings: HGEPp cells pretreated 24 h at 100 μg/ml; ΔΔCt
Experimental: as §2

MPO = assay: Human oxidative stress RT2 Profiler PCR array in HGEPp cells: MPO; settings: HGEPp cells pretreated 24 h at 100 μg/ml; ΔΔCt
Experimental: as §3, §4, §5, §6

[3] = system: oxidative stress-related genes in HGEPp cells; assay: Human oxidative stress RT2 Profiler PCR array in HGEPp cells: statements over several genes; settings: for SOD1, NQ01, GCLC, GSTP1 and GCLM; 100 μg/ml, 24 h
Experimental: as §3, §4, §5, §6

HGEPp cells [4] = settings: 100 μg/mL pretreatment; taken from PCT/IB2017/001312; cited from earlier work

Compound	OGD induced caspase 3/7 activation (rat cortical neurons)	neuroprotection (rat cortical neurons)	ROS level relative to Normal (100%, optical density baseline) (HGEPp cells [1]) [%]	cardioprotection [2]	GSTP1 up regulation relative fold change (GSTP1) [fold]	GPX4 up regulation relative fold change (GPX4) [fold]	UCP2 down regulation relative fold change (UCP2) [fold]	NQO1 up regulation relative fold change (NQO1) [fold]	GCLM up regulation relative fold change (GCLM) [fold]	PRDX2 down regulation relative fold change (PRDX2) [fold]	ALOX12 up regulation relative fold change (ALOX12) [fold]	GCLC up regulation relative fold change (GCLC) [fold]	SOD1 up regulation relative fold change (SOD1) [fold]	GTF2i down regulation relative fold change (GTF2i) [fold]	GPX1 up regulation relative fold change (GPX1) [fold]	PTGS1 down regulation relative fold change (PTGS1) [fold]	MPO up regulation relative fold change (MPO) [fold]	up-regulation compared to ST-617-DPI and ST-617-DPI [3]	prevention of OGD-induced apoptosis based on caspase activation (rat cortical neurons; 10 μM, OGD 2 hours, measured 24 h after exposure) [%]	ROS level relative to Normal (100%, optical density baseline) (HGEPp cells [4]) [%]
Cc1c(-c2cnccn2)ssc1=S.Cl [Example 1, hydrochloride complex of oltipraz]	significantly reduced	high degree of neuroprotection	128	significant degree of cardioprotection																
Cc1c(-c2cncc[n+]2OC2=CC(=O)OC2=O)ssc1=S [Example 2, hydroxymaleate anhydride complex of oltipraz]	significantly reduced	high degree of neuroprotection	116	significant degree of cardioprotection																
CC(=O)[n+]1ccncc1-c1ssc(=S)c1C.[Cl-] [Example 3, acetyl chloride complex of oltipraz]	significantly reduced	high degree of neuroprotection	129	significant degree of cardioprotection	2.87	2.83	0.26	3.36	2.38	0.33	6.33	3.27	4.24	0.32	4.76	0.29	3.10			
CCCC[n+]1ccncc1-c1ssc(=S)c1C.[Cl-] [Example 4, n-butyl chloride complex of oltipraz]			128		2.88	2.96	0.25	3.34	2.38	0.32	5.82	3.35	4.15	0.35	4.80	0.27	3.20			
Cc1c(-c2cncc[n+]2C)ssc1=S.[I-] [Example 5, methyl iodide complex of oltipraz]			134		2.90	2.85	0.29	3.15	2.27	0.32	6.04	3.38	3.89	0.33	4.98	0.28	3.18			
Cc1c(-c2cncc[n+]2C(=O)c2ccccc2)ssc1=S.[Cl-] [Example 6, benzoyl chloride complex of oltipraz]			131		2.74	2.91	0.28	3.17	2.25	0.31	5.93	3.31	3.92	0.36	4.43	0.28	3.05			
COP(=O)([O-])OC.Cc1c(-c2c[n+](C)ccn2)ssc1=S [Example 9, dimethyl phosphate complex of N-methyl oltipraz]	significantly reduced	high degree of neuroprotection	112	significant degree of cardioprotection	3.16	2.93	0.15	4.24	3.15	0.27	6.43	4.60	5.22	0.28	4.89	0.21	3.41	significantly higher up-regulation		
Cc1c(-c2cnccn2)ssc1=S.O=S(=O)(O)CCO [Example 10, isethionic acid complex of oltipraz]			113															significantly higher up-regulation		
C[C@]12N[C@H](Cc3ccccc31)c1ccccc12 [MK801, Dizocilpine, reference compound]																			28	
Cc1c(-c2cnccn2)ssc1=S [ST-617-API, 4-methyl-5-(pyrazin-2-yl)-3H-1,2-dithiole-3-thione, reference compound]																6.22				124
thiobenzoic acid complex of oltipraz [Example 11]			116																	
